Experimental data taken from patent publication US6444666B1, “Triazolopyridazine Derivatives for treating anxiety and enhancing cognition” (Merck Sharp & Dohme Ltd., priority 1997, dated 2002).

Cn1ncnc1COc1nn2c(-c3cnccn3)nnc2cc1-c1ccccc1 [Example 2, 6-(2-Methyl-2H-1,2,4-triazol-3-ylmethoxy)-7-phenyl-3-(pyrazin-2-yl)-1,2,4-triazolo[4,3-b]pyridazine]
melting point: 264 °C

c1ccc(-c2cc3nnc(-c4cnccn4)n3nc2OCc2nc[nH]n2)cc1 [Example 3, 7-Phenyl-3-(pyrazin-2-yl)-6-(1H-1,2,4-triazol-3-ylmethoxy)-1,2,4-triazolo[4,3-b]pyridazine]
melting point: 255 °C

Cc1cc(-c2nnc3cc(C(C)(C)C)c(OCc4ncn(C)n4)nn23)no1 [Example 6, 7-t-Butyl-3-(5-methylisoxazol-3-yl)-6-(1-methyl-1.2 4-triazol-3-yl)methyloxy-1,2,4-triazolo[4,3-b]pyridazine]
melting point: 221 to 223 °C

Cc1cc(-c2nnc3cc(C(C)(C)C)c(OCc4cn(C)nn4)nn23)no1 [Example 7, 7-t-Butyl-3-(5-methylisoxazol-3-yl)-6-(1-methyl-1.2.3-triazol-4-yl)methyloxy-1,2,4-triazolo[4,3-b]pyridazine]
melting point: 219 to 221 °C
